According to patent US10732174B2, “Three dimensional tissues for high-throughput assays” (INVIVOSCIENCES, INC., priority 2008, dated 2020):
Entries after “also recorded” stand apart in the source; their conditions may differ. Like-named read-outs stand apart in the source and are kept apart here. Each block holds one compound with its values, some of them ahead of it.

Key:
[1] = tested on: human epidermoid cell lines; conditions: reported; cited from earlier work
[2] = tested on: hydrogel tissue constructs (HTCs) of REF-52 cells; assay: HTC force measurement (Palpator); type: cell-based, rat; conditions: for effect on tissue (HTC contractile) force, in words: 3 and 24 hr
Method: Rat embryonic fibroblasts (REF-52) were cultured in Dulbecco's Modified Eagle's Medium (DMEM, MT10013CM, Fisher Scientific, Pittsburgh, Pa.) supplemented with 10% fetal bovine serum (FBS, S11050, Atlanta Biologicals, Lawrenceville, Ga.). Cells were sub-cultured every two to three days. To make hydrogel tissue constructs (HTCs), REF-52 cells (between passages 40 to 70) were dissociated from culture plates by treating with 0.05% trypsin (MT-25-025-CI, Fisher Scientific) for 10 to 15 min. The cells were then centrifuged at 1000 g for 10 min. The trypsin solution was decanted and the cell pellet was re-suspended in 10% FBS DMEM medium. This cell suspension was diluted in HTC tissue solution to achieve a final concentration of 8×10^5 cells per ml. The HTC tissue solution consisted of 10% FBS DMEM, 1 mg/ml of type 1 collagen (354249, BD Biosciences, San Jose, Calif.) in 0.02 N acetic acid, sufficient sodium hydroxide to neutralize the acid in the collagen, and sufficient 5×DMEM to compensate for the volume of collagen and NaOH. To prevent premature collagen polymerization, the HTC tissue solution was kept on ice until its distribution into our custom-made tissue molds (FIG. 3). Each mold contains 8 separate HTC-forming wells with two built-in horizontal support bars. Three hundred microliters of the HTC tissue solution was aliquoted into each well in these molds and then incubated for 30 min at 37° C. and 5% CO2. After the incubation period, […] of 10% FBS DMEM medium was added to each well and the molds were further incubated for 48 hr. In this time, the solution contracted to form HTCs that span the support bars in the wells.
The Palpator™ (as described in U.S. Pat. No. 7,449,306, which is incorporated herein by reference in its entirety) was used to quantify the contractility of the HTCs. The molds were placed on the stage of the Palpator™ which automatically inserted a probe into each well and stretched the individual HTC. The probe was connected to a force transducer which measured the resistance force induced in the HTC in response to stretch and exported the values to a computer for recording. A custom Matlab algorithm was used to process and analyze the force data to report a numerical parameter that is indicative of the active cell force in the HTC. To obtain stable measurements of the HTC contractile force, it was necessary to precondition the HTCs by stretching three times prior to actual force measurement. Preconditioning was not necessary if subsequent force measurements were within 30 min of the previous stretch. HTCs at 24 hr post treatment were always pre-conditioned before force measurement.

[3] = tested on: F-actin in HTCs of REF-52 cells; assay: F-actin content of HTCs, Alexa-phalloidin, plate reader; type: cell-based, rat; conditions: HTC treated 24 hours
From the text: FIG. 5A-FIG. 5W. FIG. 5A is a photograph of The Palpator™. The system includes an isometric force transducer (a), probe baths (b), and a hydrogel tissue construct (HTC) stage (c) on a temperature regulator plate (d). FIG. 5B is a photograph showing the x-y-z motion robotic arm which positions the force transducer with attached probe above the HTCs and lowers the probe onto the tissue for force measurement. FIG. 5C is a schematic of the robotic arm with attached force transducer and probe. FIG. 5D is a photograph of the probe positioned 1 mm above the mid-plane of a HTC (a) and then lowered until it first touches (b) and then stretches (c) the tissue. FIG. 5E is a graph showing representative forces recorded during HTC indentation. Arrows a, b, and c show force measurements associated with probe positions shown in (D). […] HTCs were preconditioned, then treated with varying concentrations of the four drugs as indicated. Forces were measured at 3 (f) and 24 hr (g). Force measurements were expressed relative to control, medium treated, HTCs (Fc). […] HTCs treated with drugs for 24 hours were fixed and labeled with Alexa 568 conjugated phalloidin. Fluorescence intensity was read on a plate reader and plotted relative to control, media treated, HTCs (Ic). […] At 3 hr (i-m) and 24 hr (n-r, s-w) post treatment, representative monolayers were fixed and stained with Alexa 568 conjugated phalloidin and DAPI. […] Note the larger scale bar in (g) and (l). Images were captured on a Leica SP5 confocal microscope using a water-immersion 63× objective, scale bar=50 μm.
Tissue force is maintained through the integrity of the cellular cytoskeleton, especially actin and myosin. To quantify amount of F (filamentous)-actin in the HTCs treated with the compounds, the HTCs were stained with Alexa […] conjugated phalloidin. […] This is in agreement with our previous report that CD mediated reduction in tissue force was due to the loss of intact F-actin. However, force reductions by H1152 and DNP were not related to the loss of F-actin. […] By 24 hours, short F-actins were re-distributed within less-spread (FIG. 5O) and binuclear (FIG. 5T) cells.

[4] = tested on: REF-52 cells; conditions: for cytotoxicity signs in cell monolayers (confluency, nuclei, shrinkage): 24 hours; for F-actin morphology in cells, microscopy: REF monolayers, 3 hr and 24 hr
Method: REF-52 cells were plated on 35 mm culture dishes (50,000 cells) in 10% FBS medium (2 ml). Cells are incubated over night and then treated with compounds. […] Cells were incubated with drugs for 24 hours prior to fixing. To fix, treated cells were rinsed once with 2 ml of phosphate buffered saline (PBS, D5652) and then incubated in 1 ml of 4% paraformaldehyde (Sigma) solution (in PBS) for 30 min. Fixed cells are rinsed twice and then stored in 2 ml of PBS.
Fixed REF-52 cells were permeabilized by incubating in 1 ml of 0.1% Triton (BP151, Fisher Scientific) solution (in PBS) for 15 min. Permeabilized cells were rinsed twice with 1 ml TBST buffer and then blocked with 1 ml of 5% goat serum in TBST for 1 hour. One milliliter of 1:200 diluted Alexa 568 conjugated phalloidin (A12380, Invitrogen) in TBST with 2% goat serum was then added to the cells. This staining solution also contained 400 nM of DAPI (D9564). Cells were stained for 30 min and then rinsed twice with TBST. Labeled cells were mounted with Vectashield (Vector Laboratories, Burlingame, Calif.), covered with a cover slide and then sealed with nail polish. The plate was then inverted on to a Leica SP5 confocal microscope (Leica Microsystems, Bannockburn, Ill.) and imaged with 63× water immersion objective. Alexa 568 was excited using the 543 laser line and DAPI was excited using a MaiTai multi-photon laser.

[5] = tested on: HTCs of REF-52 cells
Method: 3-(4,5-dimethylthiazol-2-yl)-2,5-diphenyltetrazolium (MTT, M-6494, Invitrogen) was used to quantify cell viability in the HTCs. At predetermined times following drug exposure, MTT was added to each well to achieve 0.5 mg/ml. MTT was left in the wells for 2 hr and then removed. The formazan dye that forms in the cells were then suspended in 500 μl of isopropanol (S77795, Fisher Scientific) containing 0.1 N hydrochloric acid. Two hundred microliters of the formazan solution is then put into a 96-well plate well and read on the Synergy HT plate reader. Absorbance at 570 and 650 nm were recorded and the difference (A570-A650) was used as the absorbance intensity of the formazan.
All chemicals are from Sigma (Sigma-Alrich, St. Louis, Mo.) unless otherwise noted. […] DNP was diluted to 1 M in DMSO and then to 100, 10, and 1 mM in -F/G/P DMEM. Following HTC preconditioning and background force (i.e. pre-drug) measurement, 50 μl of the appropriate drug dilutions were added to each well to achieve the desired treatment concentration. Fifty microliters of -F/G/P DMEM was added to the control wells. Upon drug addition, medium in the wells was mixed by pipetting four times.
Finally to measure the compounds' effects on cellular viability, the assay using 3-(4,5-Dimethylthiazol-2-yl)-2,5-diphenyltetrazolium bromide (MTT) was performed. In cells, the yellow MTT is converted to a purple colored formazan by succinate dehydrogenase and this change can be quantified by light absorbance between 500-600 nm was quantitatively recorded using the plate reader.

[6] = tested on: mitochondrial membrane potential in HTCs of REF-52 cells; assay: HTC TMRE labeling, mitochondrial potential; type: cell-based, rat; conditions: for effect on mitochondrial potential, in words: HTC, TMRE; for EC50: Rattus norvegicus, read-out: EC50 of TMRE signal reduction (MMP uncoupling)
Method: The ethyl ester of tetramethylrhodamine (TMRE, T-669, Invitrogen, Carlsbad, Calif.) was used to quantify the mitochondrial potential of the HTCs. HTCs were incubated in 100 nM TMRE for 30 min and then in phenol red free 10% FBS DMEM for 60 min. Phenol red free medium was used to prevent interference with TMRE fluorescence reading. Following labeling, HTCs were preconditioned with three stretches and then prior to background force measurement. HTC TMRE signal was then read on a Synergy HT plate reader (Biotek Instruments, Winooski, Vt.). A custom made adapter plate was used to position the tissue molds on the plate-holding rack of the plate reader. Fluorescence signal was read from the bottom using the 543/590 excitation/emission filter set and a gain setting of 50. TMRE fluorescence intensity was also read following each force measurement at predetermined time points after drug treatments.
TMRE is cationic and accumulates in the mitochondria as a function of MMP. […] More detailed investigation of DNP's effect on TMRE accumulation using confocal microscopy improved signal detection in both monolayers and HTCs (FIG. 6C and FIG. 6D).

[7] = tested on: HepG2 cells; conditions: previously reported; cited from earlier work
[8] = HTC, 3 hr treatment, read-out: EC50 of tissue force reduction

SMILES: C=C1[C@@H](C)[C@H]2[C@H](Cc3ccccc3)NC(=O)[C@]23[C@H](OC(C)=O)/C=C/[C@@](C)(O)C(=O)[C@@H](C)C/C=C/[C@H]3[C@@H]1O [CD, Cytochalasin D]
LD50 [1]: 5 to 30 µM | effect on tissue (HTC contractile) force, in words ([2]; HTC): dose-dependently reduced HTC contractile force; also recorded: dose-dependently reduced tissue force; also recorded: very effective at reducing HTC force | EC50 [2, 8]: ~0.1 µM | F-actin content of HTCs (Alexa-phalloidin intensity) [3]: significantly reduced | F-actin content of HTCs (Alexa-phalloidin intensity) ([3]; listed as Cytochalasin D): reduced cellular F-actin | cytotoxicity signs in cell monolayers (confluency, nuclei, shrinkage) [4]: cytotoxicity was evident | F-actin morphology in cells, microscopy [4]: extensive actin depolymerization by 3 hr; also recorded: extensive disruption of F-actin as early as 3 hours | reduction of MTT signal ([5]; 0.2 μM, 24 hours): 40% | reduction of MTT signal ([5]; 2 μM, 24 hours): 40%

formazan absorbance relative to control (A/Ac) ([5]; rat, 24 h, 10 %): 0.11±9×10^−3
SMILES: C[S+](C)[O-] [DMSO, dimethyl sulfoxide]

SMILES: O=[N+]([O-])c1ccc(O)c([N+](=O)[O-])c1 [DNP, 2,4-dinitrophenol]
reduction in EC50 of effect on tissue force ([2]; 24 hr vs 3 hr): 65 fold | concentration needed to reduce tissue force relative to H-1152 or CD ([2]; HTC): ~10,000 fold | effect on tissue (HTC contractile) force, in words ([2]; HTC): dose-dependently reduced HTC contractile force; also recorded: also reduced tissue force; also recorded: very effective at reducing HTC force | EC50 ([2]; Rattus norvegicus, REF52, 3 h, read-out: EC50 of tissue force reduction): 1300 µM | EC50 ([2]; Rattus norvegicus, REF52, 24 h, read-out: EC50 of tissue force reduction): 20 µM | reduction in TMRE EC50 by 24 hours treatment ([6]; 24 hr vs 3 hr): 3.6 fold | effect on mitochondrial potential, in words [6]: dose-dependently uncoupled HTC mitochondrial potential; also recorded: extensive uncoupling effect | EC50 ([6]; REF52, 3 h): ~340 µM | EC50 ([6]; REF52, 24 h): ~95 µM | F-actin content of HTCs (Alexa-phalloidin intensity) [3]: comparable to controls | cytotoxicity signs in cell monolayers (confluency, nuclei, shrinkage) [4]: less than that of control | F-actin morphology in cells, microscopy [4]: limited to no effects; also recorded: did not dramatically affect F-actin morphology | effect on HTC viability / MTT signal, in words ([5]; 24 hours): did not affect MTT signal

SMILES: Cc1cncc2cccc(S(=O)(=O)N3CCCNC[C@@H]3C)c12 [H-1152]
effect on tissue (HTC contractile) force, in words ([2]; HTC): dose-dependently reduced tissue force | effect on tissue (HTC contractile) force, in words ([2]; HTC, listed as RKI): very effective at reducing HTC force | effect on tissue (HTC contractile) force, in words ([2]; HTC, listed as RKI1): dose-dependently reduced HTC contractile force; also recorded: effectively reduced tissue force | EC50 [2, 8]: ~0.1 µM | EC50 ([2]; HTC, time not stated at place, read-out: force-reducing EC50): 0.1 µM | effect on mitochondrial potential, in words ([6]; listed as RKI): limited mitochondrial and viability toxicity | effect on mitochondrial potential, in words ([6]; listed as RKI1): minimal uncoupling activity | F-actin content of HTCs (Alexa-phalloidin intensity) [3]: comparable to controls | F-actin morphology in cells, microscopy ([4]; listed as RKI): did not dramatically affect F-actin morphology | F-actin morphology in cells, microscopy ([4]; listed as RKI1): limited to no effects

SMILES: C=C(C)[C@H]1Cc2c(ccc3c2O[C@@H]2COc4cc(OC)c(OC)cc4[C@@H]2C3=O)O1 [ROT, rotenone]
effect on tissue (HTC contractile) force, in words ([2]; HTC): dose-dependently reduced HTC contractile force; also recorded: also reduced tissue force; also recorded: moderate negative impact | effect on mitochondrial potential, in words [6]: moderate negative impact | F-actin content of HTCs (Alexa-phalloidin intensity) [3]: inconclusive | cytotoxicity signs in cell monolayers (confluency, nuclei, shrinkage) [4]: cytotoxicity was evident; also recorded: less than that of control; also recorded: Noticeable nuclear fragmentation | F-actin morphology in cells, microscopy [4]: limited to no effects; also recorded: did not dramatically affect F-actin morphology | toxicity [7]: 25% | reduction of MTT signal ([5]; 10 μM, 24 hours): 40%
